Data published in ChEMBL document CHEMBL5120860, “Ansellone J, a Potent in Vitro and ex Vivo HIV-1 Latency Reversal Agent Isolated from a Phorbas sp. Marine Sponge” (J Nat Prod, 2022).

Key:
[1] = system: Human immunodeficiency virus 1; test: Reversal of HIV-1 latency infected in GFP-fused human J-Lat 9.2 cells assessed as increase in GFP expression at 10 uM incubated for 24 hrs by flow cytometry analysis relative to control; assay type: functional
[2] = system: Human immunodeficiency virus 1; test: Reversal of HIV-1 latency infected in GFP-fused human J-Lat 9.2 cells assessed as increase in GFP expression at 30 uM incubated for 24 hrs by flow cytometry analysis relative to control; assay type: functional
[3] = system: Human immunodeficiency virus 1; test: Reversal of HIV-1 latency in human CD4+ T cells derived from cARC-suppressed donors with HIV assessed as fold increase in viral RNA copies measured per ml of supernatant at 10 uM incubated for 24 hrs by qRT-PCR analysis; assay type: functional, CD4+ve Th
[4] = Cytotoxicity against human CD4+ T cells derived from cARC-suppressed donors with HIV assessed as cell viability at 10 uM incubated for 24 hrs by trypan blue staining based analysis relative to control; assay type: toxicity, CD4+ve Th; settings: primary CD4+ T cells from cART-suppressed donors with HIV, read-out: Activity
[5] = Inhibition of HIV-1 latency reversal in GFP-fused human J-lat 9.2 cells at 10 uM incubated for 24 hrs in presence of pan-PKC inhibitor Go 6983 by flow cytometry analysis relative to control; assay type: functional; settings: Human immunodeficiency virus 1, J-Lat 9.2
[6] = system: Human immunodeficiency virus 1; test: Reversal of HIV-1 latency in human CD4+ T cells derived from cARC-suppressed donors with HIV assessed as increase in viral RNA copies measured per ml of supernatant at 10 uM incubated for 24 hrs by qRT-PCR analysis (reference value: 191 +/- 321); assay type: functional, CD4+ve Th
[7] = system: Human immunodeficiency virus 1; test: Reversal of HIV-1 latency in human CD4+ T cells derived from cARC-suppressed donors with HIV assessed as increase in viral RNA copies measured per ml of supernatant at 1 uM incubated for 24 hrs by qRT-PCR analysis (reference value: 191 +/- 321); assay type: functional, CD4+ve Th
[8] = system: Human immunodeficiency virus 1; test: Reversal of HIV-1 latency infected in GFP-fused human J-Lat 9.2 cells assessed as increase in GFP expression at 3 uM incubated for 24 hrs by flow cytometry analysis relative to control; assay type: functional
[9] = Cytotoxicity against human CD4+ T cells derived from cARC-suppressed donors with HIV assessed as cell viability at 1 uM incubated for 24 hrs by trypan blue staining based analysis relative to control; assay type: toxicity, CD4+ve Th; settings: primary CD4+ T cells from cART-suppressed donors with HIV, read-out: Activity
[10] = Inhibition of HIV-1 latency reversal in GFP-fused human J-lat 9.2 cells at 1 uM incubated for 24 hrs in presence of pan-PKC inhibitor Go 6983 by flow cytometry analysis relative to control; assay type: functional; settings: Human immunodeficiency virus 1, J-Lat 9.2
[11] = system: Human immunodeficiency virus 1; test: Reversal of HIV-1 latency in human CD4+ T cells derived from cARC-suppressed donors with HIV assessed as fold increase in viral RNA copies measured per ml of supernatant at 1 uM incubated for 24 hrs by qRT-PCR analysis; assay type: functional, CD4+ve Th
[12] = Inhibition of HIV-1 latency reversal in GFP-fused human J-lat 9.2 cells at 3 uM incubated for 24 hrs in presence of pan-PKC inhibitor Go 6983 by flow cytometry analysis relative to control; assay type: functional; settings: Human immunodeficiency virus 1, J-Lat 9.2

For `CC(=O)O[C@@]12C[C@@H](C)[C@@]3(O)[C@@H](C=C(CO)C[C@]4(O)C(=O)C(C)=C[C@@H]34)[C@@H]1C2(C)C` [PROSTRATIN], the Activity [1] was 11.1%, the Activity [2] was 11.7% and the “fold change (FC)” value [3] was 2.8. For the same molecule, the viability at 24 h, 10 µM [4] was 84%, the inhibition at 10 µM [5] was > 90% and the Activity [6] was 685.
Work on `CC1=C[C@H]2O[C@@H]([C@@H]3[C@@]4(C)CCCC(C)(C)[C@@H]4C=C[C@@]3(C)O)C=C(CO)[C@H]2CC1=O` yielded an Activity [7] of 519, an Activity [8] of 27.3% and a viability at 24 h, 1 µM [9] of 82.4%. For the same molecule, the inhibition at 1 µM [10] was > 95% and the “fold change (FC)” value [11] was 2.7.
With `CC(=O)O[C@H]1C[C@]2(C)c3cc(C)c(O)cc3C(C)=CC(=O)[C@@H]2[C@@]2(C)CCCC(C)(C)[C@H]12` the inhibition at 3 µM [12] was > 95% and the Activity [1] was 36.8%.
With `CC(=O)O[C@]1(C)C[C@@H](/C=C(\C)CCC=C(C)C)O[C@@]2(C=C(CO)[C@H]3CC(=O)C(C)=C[C@H]3O2)C1` the Activity [2] was 26.2% and the inhibition at 10 µM [5] was > 90%.
